Values of other authors, collected in patent US20250114486A1, “MARKED FATTY ACID DERIVATIVE, PRECURSOR COMPOUND THEREOF, AND USE THEREOF IN CONTRAST AGENT” (BEIJING NORMAL UNIVERSITY, priority 2022, published 2025).
Like-named read-outs stand apart in the source and are kept apart here.

Conditions: female SD rats, cited from earlier work
[1] = 30 min after injection, reference 3
[2] = 30 min post-injection, reference 2
[3] = 60 min after injection, reference 2
[4] = 60 min after injection, reference 3
[5] = 60 min post-injection, reference 1
[6] = 60 min post-injection, reference 2
[7] = 120 min after injection, reference 3
[8] = 120 min post-injection, reference 1

## [99Tc].[C-]#[N+]CC(C)(C)OC.[C-]#[N+]CC(C)(C)OC.[C-]#[N+]CC(C)(C)OC.[C-]#[N+]CC(C)(C)OC.[C-]#[N+]CC(C)(C)OC.[C-]#[N+]CC(C)(C)OC [^99mTc-MIBI]
10 min after injection, reference 2
  absolute myocardial uptake value: 3.26±0.18 % ID/g
10 min post-injection, reference 1
  absolute myocardial uptake value: 3.70 % Dose/g
20 min after injection, reference 2
  absolute myocardial uptake value: 3.07 0.21 % ID/g
30 min after injection, reference 2
  absolute myocardial uptake value: 3.13±0.12 % ID/g
[1]
  Heart-to-Blood ratio: 114.6±34.70
  absolute myocardial uptake value: 3.16±0.56 % ID/g
30 min post-injection, reference 1
  absolute myocardial uptake value: 3.16 % Dose/g
[2]
  Heart-to-Blood ratio: 104.30
  Heart-to-Lungs ratio: 4.66±0.24
30 min post-injection, reference 3
  Heart-to-Lungs ratio: 3.57±0.72
[3]
  Heart-to-Liver ratio: 2.65±0.22
  absolute myocardial uptake value: 3.29±0.12 % ID/g
[4]
  Heart-to-Blood ratio: 137.80±35.00
  Heart-to-Liver ratio: 4.25±0.84
  absolute myocardial uptake value: 3.14±0.42 % ID/g
[5]
  Heart-to-Liver ratio: 2.04±0.17
  Heart-to-Lungs ratio: 6.77±0.55
  absolute myocardial uptake value: 3.04 % Dose/g
[6]
  Heart-to-Blood ratio: 164.50
  Heart-to-Lungs ratio: 7.32±0.28
60 min post-injection, reference 3
  Heart-to-Lungs ratio: 6.41±1.25
[7]
  Heart-to-Blood ratio: 209.00±12.40
  Heart-to-Liver ratio: 4.52±1.57
  absolute myocardial uptake value: 2.83±0.25 % ID/g
[8]
  Heart-to-Liver ratio: 2.96±0.34
  Heart-to-Lungs ratio: 6.48±0.51
120 min post-injection, reference 3
  Heart-to-Lungs ratio: 7.97±1.89
